From the supplement of paper PMC10627819

Assays:
S. aureus DSM 20231 [1] = test: fitness (endpoint OD595 vs no drug) (fraction); higher = more growth
In short: (§1)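 Bacterial fitness was scored as optical density at the stationary-phase transition relative to the robust mean of no-drug control wells. Scores are capped at 1. The growth data were OD595 readings every 30 min for 14 h at 37 °C, background-subtracted against the first reading, from 384-well plates inoculated at OD595 0.01 in TSB, LB Lennox or CY.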

S. aureus Newman [2] = test: as above
In short: as §1

B. subtilis 168 = test: Bliss interaction score (quartile over a dose matrix) (fitness difference); higher = more antagonism (negative = synergy)
In short: (§2)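 Fitness was defined as normalised growth: OD595 at the start of stationary phase divided by the plate's robust no-drug mean and capped at 1. Single-drug fitness was inferred from combination measurements. The Bliss score is observed fitness minus the product of the single-drug values, summarised by quartiles across technical, biological and donor/recipient replicates.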

S. aureus DSM 20231 [3] = test: as above
In short: as §2

S. aureus Newman [4] = test: as above
In short: as §2

S. pneumoniae D39V = test: as above
In short: as §2

[5] = first compound 0.75 µg/mL, partner 0.0075 µg/mL
[6] = first compound 0.75 µg/mL, partner 0.015 µg/mL
[7] = first compound 1.5 µg/mL, partner 0.0075 µg/mL
[8] = first compound 1.5 µg/mL, partner 0.015 µg/mL
[9] = first compound 1.5 µg/mL, partner 0.03 µg/mL
[10] = first compound 3 µg/mL, partner 0.015 µg/mL
[11] = first compound 0.75 µg/mL, partner 0.39 µg/mL
[12] = first compound 0.75 µg/mL, partner 0.78 µg/mL
[13] = first compound 0.75 µg/mL, partner 1.56 µg/mL
[14] = first compound 1.5 µg/mL, partner 0.78 µg/mL
[15] = first compound 1.5 µg/mL, partner 1.56 µg/mL
[16] = first compound 3 µg/mL, partner 0.39 µg/mL
[17] = first compound 3 µg/mL, partner 0.78 µg/mL
[18] = first compound 0.75 µg/mL, partner 0.781 µg/mL
[19] = first compound 0.75 µg/mL, partner 1.562 µg/mL
[20] = first compound 0.75 µg/mL, partner 3.124 µg/mL
[21] = first compound 1.5 µg/mL, partner 0.781 µg/mL
[22] = first compound 1.5 µg/mL, partner 1.562 µg/mL
[23] = first compound 1.5 µg/mL, partner 3.124 µg/mL
[24] = first compound 3 µg/mL, partner 0.781 µg/mL
[25] = first compound 3 µg/mL, partner 1.562 µg/mL
[26] = first compound 3 µg/mL, partner 3.124 µg/mL
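For Bliss interaction score (quartile over a dose matrix) in this document: first quartile when negative (synergy) and third quartile when positive (antagonism).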
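For fitness (endpoint OD595 vs no drug) in this document: OD595 on entry to stationary phase over no-drug wells; at most 1.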

O=C(N[C@H](CO)[C@H](O)c1ccc([N+](=O)[O-])cc1)C(Cl)Cl [Chloramphenicol] + COc1c(N2C[C@@H]3CCCN[C@@H]3C2)c(F)cc2c(=O)c(C(=O)O)cn(C3CC3)c12 [Moxifloxacin]
fitness (S. aureus DSM 20231 [1]; [5]): 0.578 | fitness (S. aureus DSM 20231 [1]; [6]): 0.714 | fitness (S. aureus DSM 20231 [1]; first compound 0.75 µg/mL, partner 0.03 µg/mL): 0.613 | fitness (S. aureus DSM 20231 [1]; first compound 0.75 µg/mL, partner 0.06 µg/mL, one replicate): 0.67 | fitness (S. aureus DSM 20231 [1]; first compound 0.75 µg/mL, partner 0.12 µg/mL, one replicate): 0.591 | fitness (S. aureus DSM 20231 [1]; [7]): 0.633 | fitness (S. aureus DSM 20231 [1]; [8]): 0.636 | fitness (S. aureus DSM 20231 [1]; [9]): 0.562 | fitness (S. aureus DSM 20231 [1]; first compound 1.5 µg/mL, partner 0.06 µg/mL, one replicate): 0.635 | fitness (S. aureus DSM 20231 [1]; first compound 1.5 µg/mL, partner 0.12 µg/mL, one replicate): 0.58 | fitness (S. aureus DSM 20231 [1]; [10]): 0.113 | fitness (S. aureus DSM 20231 [1]; first compound 3 µg/mL, partner 0.03 µg/mL): 0.0861 | fitness (S. aureus DSM 20231 [1]; first compound 3 µg/mL, partner 0.06 µg/mL, one replicate): 0.0943 | fitness (S. aureus DSM 20231 [1]; first compound 3 µg/mL, partner 0.12 µg/mL, one replicate): 0.118 | fitness (S. aureus Newman [2]; [5]): 0.738 | fitness (S. aureus Newman [2]; [6]): 0.647 | fitness (S. aureus Newman [2]; [7]): 0.566 | fitness (S. aureus Newman [2]; [8]): 0.487 | fitness (S. aureus Newman [2]; [9]): 0.364 | fitness (S. aureus Newman [2]; first compound 3 µg/mL, partner 0.0075 µg/mL): 0.214 | fitness (S. aureus Newman [2]; [10]): 0.166 | Bliss interaction score (B. subtilis 168): 0.0443 | Bliss interaction score (S. aureus DSM 20231 [3]): 0.148 | Bliss interaction score (S. aureus Newman [4]): 0.16 | Bliss interaction score (S. pneumoniae D39V): 0.0681

O=C(N[C@H](CO)[C@H](O)c1ccc([N+](=O)[O-])cc1)C(Cl)Cl [Chloramphenicol] + COc1ccc(C[C@H](N)C(=O)N[C@H]2[C@@H](O)[C@H](n3cnc4c(N(C)C)ncnc43)O[C@@H]2CO)cc1 [Puromycin]
fitness (S. aureus DSM 20231 [1]; [11]): 0.764 | fitness (S. aureus DSM 20231 [1]; [12]): 0.759 | fitness (S. aureus DSM 20231 [1]; [13]): 0.782 | fitness (S. aureus DSM 20231 [1]; first compound 0.75 µg/mL, partner 3.12 µg/mL, one replicate): 0.771 | fitness (S. aureus DSM 20231 [1]; first compound 0.75 µg/mL, partner 6.24 µg/mL, one replicate): 0.387 | fitness (S. aureus DSM 20231 [1]; [14]): 0.585 | fitness (S. aureus DSM 20231 [1]; [15]): 0.455 | fitness (S. aureus DSM 20231 [1]; first compound 1.5 µg/mL, partner 3.12 µg/mL, one replicate): 0.231 | fitness (S. aureus DSM 20231 [1]; [16]): 0.11 | fitness (S. aureus DSM 20231 [1]; [17]): 0.0684 | fitness (S. aureus DSM 20231 [1]; first compound 3 µg/mL, partner 3.12 µg/mL, one replicate): 0.0598 | fitness (S. aureus DSM 20231 [1]; first compound 3 µg/mL, partner 6.24 µg/mL, one replicate): 0.0594 | fitness (S. aureus Newman [2]; [11]): 0.764 | fitness (S. aureus Newman [2]; [12]): 0.777 | fitness (S. aureus Newman [2]; [13]): 0.807 | fitness (S. aureus Newman [2]; first compound 1.5 µg/mL, partner 0.39 µg/mL): 0.502 | fitness (S. aureus Newman [2]; [14]): 0.501 | fitness (S. aureus Newman [2]; [15]): 0.501 | fitness (S. aureus Newman [2]; [16]): 0.145 | fitness (S. aureus Newman [2]; [17]): 0.121 | Bliss interaction score (B. subtilis 168): -0.0629 | Bliss interaction score (S. aureus DSM 20231 [3]): 0.0724 | Bliss interaction score (S. aureus Newman [4]): -0.111 | Bliss interaction score (S. pneumoniae D39V): -0.0967

O=C(N[C@H](CO)[C@H](O)c1ccc([N+](=O)[O-])cc1)C(Cl)Cl [Chloramphenicol] + C[C@@H]1O[C@@H]1P(=O)(O)O [Fosfomycin]
fitness (S. aureus DSM 20231 [1]; [18]): 0.633 | fitness (S. aureus DSM 20231 [1]; [19]): 0.558 | fitness (S. aureus DSM 20231 [1]; [20]): 0.436 | fitness (S. aureus DSM 20231 [1]; [21]): 0.473 | fitness (S. aureus DSM 20231 [1]; [22]): 0.402 | fitness (S. aureus DSM 20231 [1]; [23]): 0.265 | fitness (S. aureus DSM 20231 [1]; [24]): 0.116 | fitness (S. aureus DSM 20231 [1]; [25]): 0.0874 | fitness (S. aureus DSM 20231 [1]; [26]): 0.0652 | fitness (S. aureus Newman [2]; [18]): 0.491 | fitness (S. aureus Newman [2]; [19]): 0.452 | fitness (S. aureus Newman [2]; [20]): 0.117 | fitness (S. aureus Newman [2]; [21]): 0.394 | fitness (S. aureus Newman [2]; [22]): 0.272 | fitness (S. aureus Newman [2]; [23]): 0.0322 | fitness (S. aureus Newman [2]; [24]): 0.117 | fitness (S. aureus Newman [2]; [25]): 0.0456 | fitness (S. aureus Newman [2]; [26]): 0.0343 | Bliss interaction score (B. subtilis 168): 0.129 | Bliss interaction score (S. aureus DSM 20231 [3]): 0.0517 | Bliss interaction score (S. aureus Newman [4]): -0.108 | Bliss interaction score (S. pneumoniae D39V): 0.0635
